Key:
Format in all cases: in vivo
[1] = system: apo e−/− mice; assay: Regression of pre-existing atherosclerotic lesions (Sudan IV stained aortas) in apo e−/− mice; settings: apo e−/− mice 7 months on Western diet, 40mg/kg/day for one month
From the text: Aortas from untreated (FIG. 6A), vehicle treated (FIG. 6B), and WHI-P164 treated (FIG. 6C) animals were stained with Sudan IV to show the fatty streaks. Aortas of untreated control mice were obtained at 7 months to reflect the pretreatment condition of the test groups. Aortas of vehichle treated or WHI-P164 treated test mice were obtained at 8 months following a one month treatment program. Statistical comparisons indicate **p=0.002 for untreated controls versus WHI-P164 treated test mice and p=0.007 for vehicle controls versus WHI-P164 treated mice.
The effectiveness of WHI-P164 against pre-existing atherosclerotic lesions in apo e^−/− mice kept 7 months on high fat Western diet was examined. apo e^−/− mice were treated with either vehicle control or WHI-P164 at 40mg/kg/day for one month. […] Treatment with WHI-P164 caused a marked regression of the atherosclerotic lesions with fatty streaks covering only 23±2% (n=7) of the aortic surface (FIG. 6B), as compared to 40±5% in untreated mice (n=3) (FIG. 6A) (p=0.002) and 40±5% in the vehicle-treated mice (n=8) (FIG. 6C) (p=0.007).

[2] = system: C57B⅙ mice; assay: Blood chemistry, weight and histopathology of treated C57B⅙ mice
Experimental: […] A range of doses was administered. Control animals received vehicle alone. The effect of quinazoline derivatives on total cholesterol, LDL, HDL, liver enzymes, and glucose was analyzed. The mice tissues were also examined histologically.
Serum levels alanine aminotransferase (ALT), alkaline phosphatase (ALP), lactate dehydrogenase (LDH), blood urea nitrogen (BUN), creatinine, creatinine phosphokinase (CPK), and glucose were determined by using a Synchron CX5 Clinical System (Beckman Instruments, Inc., Fullerton, Calif.) following manufacturer's instructions. For the glucose tolerance test, blood glucose levels were determined using the portable One Touch Profile glucose meter (Lifescan, Milpitas, Calif., USA).
At the end of the experiment, the animals were sacrificed and the harvested tissues were fixed in 10% phosphate buffered formalin overnight, embedded, sectioned, and stained by hematoxylin and eosin (H&E). The stained sections were examined for pathological changes. For Oil Red O staining, the liver was excised and snap frozen in liquid nitrogen. Five micrometer thick sections were obtained using the LeicaCM1800 cryostat (Heerbrugg, Switzerland), stained in 0.5% Oil Red O in propylene glycol for 1 hour, destained in 85% propylene glycol for 1 minute, rinsed twice in distilled water, counterstained in Mayer's hematoxylin for a few seconds, rinsed twice in distilled water, and mounted in Crystalmount (Biomedia Corp., Foster City, Calif.). The Oil Red O stainable material at 400 X magnification was quantitated using the ImagePro plus program (Media Cybernetics, Silver Spring, Md., USA) in conjunction with a 3CCD camera (DAGE-MTI Inc., Michigan City, USA).

[3] = system: hypercholesterolemic C57B⅙ mice; assay: Serum lipoprotein profile (VLDL-C, HDL-C) by FPLC in C57B⅙ mice on cocoa butter diet; settings: for HDL-C / VLDL-C: C57B1/6, cocoa butter diet
Experimental: Three- to four-week old C57B⅙ male mice (Taconic, Germantown, N.Y., USA) were kept in micro-isolator cages on a 12-hour day/night cycle and fed the Paigen's cocoa butter diet (15.8% fat, 1.25% cholesterol, and 0.5% sodium cholate) (Harlan Teklad, Madison, Wis., USA) for two weeks prior to initiation of lipid lowering therapy. Paigen's diet is described in Nishina et.al., 1993, J. Lipid Res. 34: 1413-1422.
Animals were treated with test compounds by intraperitoneal injection daily for 7 days. A range of doses was administered. Control animals received vehicle alone. The effect of quinazoline derivatives on total cholesterol, LDL, HDL, liver enzymes, and glucose was analyzed. The mice tissues were also examined histologically.
Serum cholesterol profiles were examined by Fast Protein Liquid Chromatography (FPLC) using 100 μl of serum per run. The serum was passed over two Superose™ 6 HR 10/30 connected in tandem equilibrated in phosphate buffered saline (PBS), using the FPLC system from Pharmacia Biotech (Piscataway, N.J., USA) consisting of a controller LCC-501 plus connected to a UV detector (UV-MII), two P500 pumps, and a Frac-100 fraction collector. The FPLC was remotely controlled and operated by the FPLC director program operated on an IBM computer. The system was operated at a flow rate of 0.5 ml/minute and fractions were collected at 0.5 ml/fraction. Cholesterol concentration of each fraction was determined as described above and plotted against the fraction numbers to obtain the serum cholesterol profile.
To determine the serum concentrations of LDL/β-VLDL and HDL, the sums of the LDL/β-VLDL peak (fractions 29-35) and the HDL peak (fractions 53-63) were divided by 0.1. To obtain the IC50 and the minimum β-VLDL and HDL concentrations, the concentrations of β-VLDL and HDL were plotted against the dosage. Best fitted exponential decay curves were obtained using the equation: Concentration of HDL or LDL/β-VLDL=Aexp(−BX)+E, where A+E equals the concentration of HDL or LDL/β-VLDL at the dosage of 0 μg/day and E equals the mathematical minimum concentration of HDL or β-VLDL, and B equals 0.69/IC50. Best fitted curves were obtained using the Graphpad Inplot program, Graphpad Software, San Diego, Calif., USA.
As shown by their serum lipoprotein profiles (FIG. 1), hypercholesterolemic C57B⅙ mice preferentially accumulated cholesterol rich VLDL (171±19 mg/dL, n=4 versus 7±4 mg/dL, n=3, p=0.0008) but no changes in HDL cholesterol levels (90±9 mg/dL, n=4 versus 86±13 mg/dL, n=3, p=0.8) (Table 2). […] In WHI-P164 treated mice, serum VLDL-C decreased immediately from 171±19 mg/dL (n=4), to 99±13 mg/dL (n=4) at the 1.6 mg/kg/day dose level (P=0.02) and further decreased to 78±15 mg/dL (n=4) at the 16 mg/kg/day dose level (p=0.1) (Table 1). […] Thus, WHI-P164 was only able to reduce VLDL-C by […].

[4] = C57B⅙ mice, indicated dose levels

COc1cc2ncnc(C(=O)c3cccc(Br)c3)c2cc1OC [WHI-P164, 4-(3′-bromobenzoyl)-6,7-dimethoxyquinazoline]
Aortic surface covered by fatty streaks stainable by Sudan IV [1]: 23±2% | Histopathologic examination of tissues [2, 4]: did not reveal any drug related toxic lesions | Liver enzymes (ALT, ALP, LDH) and BUN/Creatinine [2, 4]: remained within normal limits | Clinical or laboratory signs of toxicity ([2]; C57B⅙ mice, indicated dose levels (1.6-16 mg/kg/day)): not associated with any obvious clinical or laboratory signs of toxicity | ALP ([2]; treated C57B1/6 mice, 1 week): 101 ± 3 IU/L | BUN ([2]; treated C57B1/6 mice, 1 week): 25.4 ± 2.0 mg/dL | Glucose ([2]; treated C57B1/6 mice, 1 week): 201 ± 18 mg/dL | LD-L ([2]; treated C57B1/6 mice, 1 week): 1402 ± 144 IU/L | Net weight change ([2]; treated C57B1/6 mice, 1 week): -0.26 ± 0.22 g | ALP ([2]; treated C57B1/6 mice, 2 weeks): 94 ± 10 IU/L | ALT ([2]; treated C57B1/6 mice, 2 weeks): 148 ± 54 IU/L | LD-L ([2]; treated C57B1/6 mice, 2 weeks): 459 ± 83 IU/L | Net weight change ([2]; treated C57B1/6 mice, 2 weeks): 1.88 ± 0.42 g | HDL-C ([3]; dose 1.6 mg/kg): 93 ± 8 mg/dL | VLDL-C ([3]; dose 1.6 mg/kg/day): 99 ± 13 mg/dL | HDL-C ([3]; dose 4.0 mg/kg): 86 ± 5 mg/dL | VLDL-C ([3]; dose 4.0 mg/kg): 106 ± 15 mg/dL | HDL-C ([3]; dose 8.0 mg/kg): 81 ± 9 mg/dL | VLDL-C ([3]; dose 8.0 mg/kg): 101 ± 7 mg/dL | HDL-C ([3]; dose 16.0 mg/kg): 74 ± 10 mg/dL | VLDL-C ([3]; dose 16 mg/kg/day): 78 ± 15 mg/dL | Effect on serum HDL-C levels ([3]; C57B⅙ mice, cocoa butter diet): did not significantly affect | Calculated effective dose (ED50) for VLDL-C lowering ([3]; C57B⅙ mice, cocoa butter diet, fitted exponential decay curve): 0.4 mg/kg/day | Minimum serum VLDL-C level ([3]; C57B⅙ mice, cocoa butter diet, mathematical minimum of fitted curve): 94 ± 9 mg/dL | Reduction of VLDL-C ([3]; C57B⅙ mice, cocoa butter diet, maximal reduction): 45% | Reduction of LDL-C ([3]; hypercholesterolemic C57B⅙ mice on a high calorie diet): 45%

— patent US6410545B1, “Lipid lowering quinazoline dietary supplement composition” (Parker Hughes Institute, priority 1998, dated 2002)
